Measurements as given in patent US20210045385A1, “PYRIDAZINONE-SUBSTITUTED KETOXIMES AS HERBICIDES” (FMC Corporation, priority 2018, published 2021).

Tests used:
Format in all cases: in vivo
[1] = system: Italian ryegrass (Lolium multiflorum); assay: Test A preemergence, visual plant response rating; details: approx. 10 days
Procedure, shortened: (§1)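 Formulated in a non-phytotoxic solvent mixture including surfactant, each test chemical was sprayed onto the soil surface after sowing, or onto seedlings 2 to 10 cm high. Roughly 10 days later, plants were compared with untreated controls and rated for injury from 0 (no effect) to 100 (complete control).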

[2] = system: barnyardgrass (Echinochloa crus-galli); assay: Test A preemergence, visual plant response rating; details: approx. 10 days
Procedure, shortened: as §1

[3] = system: foxtail, green (green foxtail, Setaria viridis); assay: Test A preemergence, visual plant response rating; details: approx. 10 days
Procedure, shortened: as §1

[4] = system: kochia (Kochia scoparia); assay: Test A preemergence, visual plant response rating; details: approx. 10 days
Procedure, shortened: as §1

[5] = system: pigweed (Amaranthus retroflexus); assay: Test A preemergence, visual plant response rating; details: approx. 10 days
Procedure, shortened: as §1

[6] = system: ragweed (common ragweed, Ambrosia elatior); assay: Test A preemergence, visual plant response rating; details: approx. 10 days
Procedure, shortened: as §1

[7] = system: Italian ryegrass (Lolium multiflorum); assay: Test A postemergence, visual plant response rating; details: for Ryegrass, Italian plant response rating (0 to 100 scale): 500 g ai/ha, postemergence, 0 is no effect, 100 is complete control; for Ryegrass, Italian plant response rating: Postemergence, 125 g ai/ha, 0 to 100 scale (0 no effect, 100 complete control)
Procedure, shortened: as §1

[8] = system: barnyardgrass (Echinochloa crus-galli); assay: Test A postemergence, visual plant response rating; details: for Barnyardgrass plant response rating (0 to 100 scale): 500 g ai/ha, postemergence, 0 is no effect, 100 is complete control; for Barnyardgrass plant response rating: Postemergence, 125 g ai/ha, 0 to 100 scale (0 no effect, 100 complete control)
Procedure, shortened: as §1

[9] = system: blackgrass (Alopecurus myosuroides); assay: Test A postemergence, visual plant response rating; details: for Blackgrass plant response rating (0 to 100 scale): 500 g ai/ha, postemergence, 0 is no effect, 100 is complete control; for Blackgrass plant response rating: Postemergence, 125 g ai/ha, 0 to 100 scale (0 no effect, 100 complete control)
Procedure, shortened: as §1

[10] = system: corn (Zea mays); assay: Test A postemergence, visual plant response rating; details: for Corn plant response rating (0 to 100 scale): 500 g ai/ha, postemergence, 0 is no effect, 100 is complete control; for Corn plant response rating: Postemergence, 125 g ai/ha, 0 to 100 scale (0 no effect, 100 complete control)
Procedure, shortened: as §1

[11] = system: foxtail, green (green foxtail, Setaria viridis); assay: Test A postemergence, visual plant response rating; details: for Foxtail, Green plant response rating (0 to 100 scale): 500 g ai/ha, postemergence, 0 is no effect, 100 is complete control; for Foxtail, Green plant response rating: Postemergence, 125 g ai/ha, 0 to 100 scale (0 no effect, 100 complete control)
Procedure, shortened: as §1

[12] = system: galium (catchweed bedstraw, Galium aparine); assay: Test A postemergence, visual plant response rating; details: for Galium plant response rating (0 to 100 scale): 500 g ai/ha, postemergence, 0 is no effect, 100 is complete control; for Galium plant response rating: Postemergence, 125 g ai/ha, 0 to 100 scale (0 no effect, 100 complete control)
Procedure, shortened: as §1

[13] = system: kochia (Kochia scoparia); assay: Test A postemergence, visual plant response rating; details: for Kochia plant response rating (0 to 100 scale): 500 g ai/ha, postemergence, 0 is no effect, 100 is complete control; for Kochia plant response rating: Postemergence, 125 g ai/ha, 0 to 100 scale (0 no effect, 100 complete control)
Procedure, shortened: as §1

[14] = system: pigweed (Amaranthus retroflexus); assay: Test A postemergence, visual plant response rating; details: for Pigweed plant response rating (0 to 100 scale): 500 g ai/ha, postemergence, 0 is no effect, 100 is complete control; for Pigweed plant response rating: Postemergence, 125 g ai/ha, 0 to 100 scale (0 no effect, 100 complete control)
Procedure, shortened: as §1

[15] = system: ragweed (common ragweed, Ambrosia elatior); assay: Test A postemergence, visual plant response rating; details: for Ragweed plant response rating (0 to 100 scale): 500 g ai/ha, postemergence, 0 is no effect, 100 is complete control; for Ragweed plant response rating: Postemergence, 125 g ai/ha, 0 to 100 scale (0 no effect, 100 complete control)
Procedure, shortened: as §1

[16] = system: wheat (Triticum aestivum); assay: Test A postemergence, visual plant response rating; details: for Wheat plant response rating (0 to 100 scale): 500 g ai/ha, postemergence, 0 is no effect, 100 is complete control; for Wheat plant response rating: Postemergence, 125 g ai/ha, 0 to 100 scale (0 no effect, 100 complete control)
Procedure, shortened: as §1

[17] = system: barnyardgrass (Echinochloa crus-galli); assay: Test B flooded paddy test, visual plant response rating; details: 250 g ai/ha, Flood, applied to paddy water, 2-leaf stage, evaluated after 13 to 15 days
Procedure, shortened: (§2)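 Visual scores compare treated plants with controls after 13 to 15 days of greenhouse growth. Treatment was made into paddy water standing 3 cm above the soil, with plants at the 2-leaf stage and flooding maintained throughout.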

[18] = system: ducksalad (Heteranhera limosa); assay: as above; details: 250 g ai/ha, Flood, applied to paddy water, 2-leaf stage, evaluated after 13 to 15 days
Procedure, shortened: as §2

[19] = system: rice (Oryza sativa); assay: as above; details: 250 g ai/ha, Flood, applied to paddy water, 2-leaf stage, evaluated after 13 to 15 days
Procedure, shortened: as §2

[20] = system: sedge, umbrella (small-flower umbrella sedge, Cyperus difformis); assay: as above; details: 250 g ai/ha, Flood, applied to paddy water, 2-leaf stage, evaluated after 13 to 15 days
Procedure, shortened: as §2

CCO/N=C(\c1cccc(C)c1C)c1c(O)c(C)nn(C)c1=O [Compound 25]
Ryegrass, Italian plant response rating (0 to 100 scale) ([1]; 125 g ai/ha Preemergence): 10
Ryegrass, Italian plant response rating (0 to 100 scale) ([1]; 500 g ai/ha Preemergence): 30
Barnyardgrass plant response rating (0 to 100 scale) ([2]; 125 g ai/ha Preemergence): 0
Barnyardgrass plant response rating (0 to 100 scale) ([2]; 500 g ai/ha Preemergence): 0
Foxtail, Green plant response rating (0 to 100 scale) ([3]; 125 g ai/ha Preemergence): 0
Foxtail, Green plant response rating (0 to 100 scale) ([3]; 500 g ai/ha Preemergence): 60
Kochia plant response rating (0 to 100 scale) ([4]; 125 g ai/ha Preemergence): 0
Kochia plant response rating (0 to 100 scale) ([4]; 500 g ai/ha Preemergence): 0
Pigweed plant response rating (0 to 100 scale) ([5]; 125 g ai/ha Preemergence): 90
Pigweed plant response rating (0 to 100 scale) ([5]; 500 g ai/ha Preemergence): 40
Ragweed plant response rating (0 to 100 scale) ([6]; 125 g ai/ha Preemergence): 30
Ragweed plant response rating (0 to 100 scale) ([6]; 500 g ai/ha Preemergence): 90
Ryegrass, Italian plant response rating (0 to 100 scale) [7]: 40
Ryegrass, Italian plant response rating [7]: 10
Barnyardgrass plant response rating (0 to 100 scale) [8]: 30
Barnyardgrass plant response rating [8]: 0
Blackgrass plant response rating (0 to 100 scale) [9]: 40
Blackgrass plant response rating [9]: 0
Corn plant response rating (0 to 100 scale) [10]: 0
Corn plant response rating [10]: 0
Foxtail, Green plant response rating (0 to 100 scale) [11]: 10
Foxtail, Green plant response rating [11]: 0
Galium plant response rating (0 to 100 scale) [12]: 20
Galium plant response rating [12]: 20
Kochia plant response rating (0 to 100 scale) [13]: 10
Kochia plant response rating [13]: 0
Pigweed plant response rating (0 to 100 scale) [14]: 50
Pigweed plant response rating [14]: 40
Ragweed plant response rating (0 to 100 scale) [15]: 40
Ragweed plant response rating [15]: 20
Wheat plant response rating (0 to 100 scale) [16]: 0
Wheat plant response rating [16]: 0
Plant response rating, Barnyardgrass (0 to 100 scale, 0 is no effect, 100 is complete control) [17]: 0
Plant response rating, Ducksalad (0 to 100 scale, 0 is no effect, 100 is complete control) [18]: 0
Plant response rating, Rice (0 to 100 scale, 0 is no effect, 100 is complete control) [19]: 0
Plant response rating, Sedge, Umbrella (0 to 100 scale, 0 is no effect, 100 is complete control) [20]: 0

CO/N=C(\c1c(O)c(C)nn(C)c1=O)c1cccc2ccccc12 [Compound 26]
Ryegrass, Italian plant response rating (0 to 100 scale) ([1]; 125 g ai/ha Preemergence): 70
Ryegrass, Italian plant response rating (0 to 100 scale) ([1]; 500 g ai/ha Preemergence): 100
Barnyardgrass plant response rating (0 to 100 scale) ([2]; 125 g ai/ha Preemergence): 40
Barnyardgrass plant response rating (0 to 100 scale) ([2]; 500 g ai/ha Preemergence): 80
Foxtail, Green plant response rating (0 to 100 scale) ([3]; 125 g ai/ha Preemergence): 70
Foxtail, Green plant response rating (0 to 100 scale) ([3]; 500 g ai/ha Preemergence): 100
Kochia plant response rating (0 to 100 scale) ([4]; 125 g ai/ha Preemergence): 50
Kochia plant response rating (0 to 100 scale) ([4]; 500 g ai/ha Preemergence): 80
Pigweed plant response rating (0 to 100 scale) ([5]; 125 g ai/ha Preemergence): 100
Pigweed plant response rating (0 to 100 scale) ([5]; 500 g ai/ha Preemergence): 100
Ragweed plant response rating (0 to 100 scale) ([6]; 125 g ai/ha Preemergence): 90
Ragweed plant response rating (0 to 100 scale) ([6]; 500 g ai/ha Preemergence): 100
Ryegrass, Italian plant response rating (0 to 100 scale) [7]: 70
Ryegrass, Italian plant response rating [7]: 70
Barnyardgrass plant response rating (0 to 100 scale) [8]: 60
Barnyardgrass plant response rating [8]: 50
Blackgrass plant response rating (0 to 100 scale) [9]: 90
Blackgrass plant response rating [9]: 80
Corn plant response rating (0 to 100 scale) [10]: 30
Corn plant response rating [10]: 0
Foxtail, Green plant response rating (0 to 100 scale) [11]: 80
Foxtail, Green plant response rating [11]: 60
Galium plant response rating (0 to 100 scale) [12]: 100
Galium plant response rating [12]: 90
Kochia plant response rating (0 to 100 scale) [13]: 90
Kochia plant response rating [13]: 80
Pigweed plant response rating (0 to 100 scale) [14]: 90
Pigweed plant response rating [14]: 60
Ragweed plant response rating (0 to 100 scale) [15]: 100
Ragweed plant response rating [15]: 90
Wheat plant response rating (0 to 100 scale) [16]: 10
Wheat plant response rating [16]: 0
Plant response rating, Barnyardgrass (0 to 100 scale, 0 is no effect, 100 is complete control) [17]: 0
Plant response rating, Ducksalad (0 to 100 scale, 0 is no effect, 100 is complete control) [18]: 0
Plant response rating, Rice (0 to 100 scale, 0 is no effect, 100 is complete control) [19]: 0
Plant response rating, Sedge, Umbrella (0 to 100 scale, 0 is no effect, 100 is complete control) [20]: 0
